Columns and labels:
[1] = Single and repeat iv dose toxicity study in dogs; assay type: in vivo; settings: beagle dogs, 100 x or 1000 x expected human dose iv
Procedure: (§1) For toxicity studies, 2 g of [^19F]-FDT was synthesized and tested for quality control as described above and in Figs.39 and shipped to a contract research organization. Toxicity studies were conducted by SRI International, Biosciences Division, Menlo Park, CA, USA in rats and dogs. The experimental design is described in Tables S10, S11, respectively.
To assess the toxicity associated with [^19F]-FDT in dogs, male and female Beagle dogs (5/sex) were given a daily iv injection of [^19F]-FDT at 0.4 mg/kg/day (100 times of human dose; Group 2) for 7 consecutive days, or a single iv administration of [^19F]-FDT at 0.4 or 4 mg/kg (100 and 1000 times of human dose in Groups 3 and 4, respectively) on Day 7. A control group (5/sex; Group 1), was given 7 days of vehicle (HEPES buffer, pH 7.5, 50 mM with MgCl2 7.5 mM), at an equivalent dose volume of 0.25 ml/kg on Days 1–7. Animals were sacrificed on Day 9 (3/sex/ group; main groups) or Day 21 (2/sex/group; recovery groups). The single dose administration for Groups 3–4 were initiated on Day 7 so that clinical pathology and necropsy occurred on the same calendar day for all Groups (1–4), thus allowing for sharing of vehicle control data for analysis of clinical pathology and necropsy results between the two dose regimens.

[2] = Detection/stability of [19F]FDT in human plasma; assay type: in vitro ADME; settings: spiked human plasma, LC-MS
Procedure: FDT standards were prepared in human plasma (Sigma Aldrich), whereby 20 μL plasma samples were spiked with various known concentrations of [^19F]FDT i.e. 10 μM, 20 μM, 40 μM, 120 μM, 160 μM, and 300 μM in 1.5 ml Eppendorf tube and diluted with up to 50% acetonitrile solution. Samples were vortexed for 1 min and centrifuged at 13000 rpm (15871 x g) for 10 min and supernatant was analyzed directly by LC-MS using LC method 2.
Figure S35. Detection of [19F]FDT for Assessment of Stability in Human Plasma
A) Experimental set-up of the sample preparation. Commercially available human plasma samples were spiked with known concentrations of [19F] FDT, plasma proteins were then precipitated by adding up to 50% of MeCN solution and after centrifugation the samples were analysed by LC-MS. Panel A created with BioRender.com, released under a Creative Commons Attribution-NonCommercial-NoDerivs 4.0 International license. B) [19F]FDT standard sample analysed by LC-MS method 2 with the retention time of 6.5 min. C) LC-MS analysis of plasma sample spiked with known amount of FDT showing the similar retention […]
efficient detection. D) Calibration curve of plasma samples when spiked with FDT concentrations from 10 µM – 300 µM with r2 = 0.998 and E) Further calibration curve showing instrument sensitivity down to > 390 nM for detection of FDT ( r2 = 0.998 ). […]

[3] = Single and repeat iv dose toxicity study in rats; assay type: in vivo, Sprague Dawley rats
Procedure: as §1

OC[C@H]1O[C@H](O[C@H]2O[C@H](CO)[C@@H](O)[C@H](O)[C@H]2F)[C@H](O)[C@@H](O)[C@@H]1O [[^19F]FDT]
adverse findings in any parameters measured [1]: no adverse findings
stability in human plasma [2]: no immediate degradation or apparent sequestration
maximum tolerated dose (MTD) ([3]; Sprague Dawley rats, IV): not reached
adverse findings in any parameters measured ([3]; rats, 100 x or 1000 x expected human dose iv): no adverse findings
